Experimental data taken from patent publication US6852538B1, “Nur-RE a response element which binds nur nuclear receptors and method of use therefor” (Institut de Recherches Cliniques de Montreal, priority 1996, dated 2005).
Entries after “also recorded” stand apart in the source; their conditions may differ. Ends that are not written are not given here.

Experiments:
[1] = system: rat POMC promoter (−480 to +63 bp); test: POMC promoter-luciferase reporter lipofected in AtT-20 cells; format: cell-based; settings: Dex 10^−7M
Procedure: (§1) Transfections in AtT-20 cells were performed by lipofection (lipofectin, Gibco) using exponentially growing AtT-20 cells (7.5×10^5) in 35 mm Petri dishes. Cells were grown in DMEM with 10% fetal calf serum stripped with dextran-coated charcoal. Cells and media were harvested 16 h after lipofection. Each sample for lipofection contained a total of 1.5 μg DNA, including 300 ng reporter plasmid, 300 ng RSV-GH as internal control, 100 ng of pCMX-Nur77 expression vector, and total DNA was completed to 1.5 μg with pSP64. The POMC promoter constructs were described previously (Therrien et al., 1991, Mol. Cell. Biol. 11:3492-3503; Therrien et al., 1993, Cell. Biol. 13:2342-2353.). In particular, the NurRE and nGRE linker scanning replacement mutations were described previously as mutants 3 and 15 in a series of promoter mutations (Therrien et al., 1991, supra). DO 11.10 cells were electroporated using a Biorad instruments at 250 V, 960 μFarad, and 10 μg each of reporter plasmid and expression vectors. CRH (10^−7M) and forskolin (10^−7M) were used at maximally active concentrations, and anti-CD3 (clone 145-2C11) was used at 1 μg/ml to coat dishes. The expression plasmid for the Nur77 dominant negative mutant was used at 3 μg/dish. Data are presented as the means ± SEM of 3 to 5 experiments each performed in duplicate. […]

[2] = system: Nur77 mRNA; test: Northern blot of Nur77 mRNA in AtT-20 cells; format: cell-based
Procedure: Total RNA (20 μg) extracted from AtT-20 cells was used in Northern blot experiments performed as described previously (Lamonerie et al., 1996, Genes Dev. 10:1284-1295).

[3] = system: Nur-RE; test: NurRE-luc reporter cotransfection with Nur77 and GR in CV-1 cells; format: cell-based; settings: Dex 10^−7M, ratio 1/0
[4] = system: NBRE; test: NBRE-luc reporter, antagonism between Nur77 and Dex; format: cell-based; settings: data not shown
Procedure: Transfections in AtT-20 cells were performed by lipofection (Lipofectamine, Gibco) using exponentially growing AtT-20 cells (7.5×10^5) in 35 mm Petri dishes. Cells were grown in DMEM with 10% fetal calf serum stripped with dextrancoated charcoal (Drouin et al., 1976, Endocrinology 98:1528-1534). Cells and media were harvested 16 h after lipofection. Each sample for lipofection contained a total of 1.5 μg DNA, including 300 ng reporter plasmid, 300 ng RSV-GH as internal control, 100 ng of pCMX-Nur77 expression vector, and total DNA was completed to 1.5 μg with pSP64. Where indicated, CRH and Dex were added at 10^−7M. The POMC promoter constructs were described previously (Therrien et al., 1991, Mol. Cell. Biol. 11:3492-3503; Therrien et al., 1993, Mol. Cell. Biol. 13:2342-2353). In particular, the NurRE and nGRE linker scanning replacement mutations were described previously as mutants 3 and 15 in a series of promoter mutations (Therrien et al., 1991, supra). DO 11.10 cells ([…] in 0.35 ml SMEM) were electroporated using a Biorad instruments at 250 V, 960 μFarad, and 10 μq each of reporter plasmid and expression vectors. After electroporation, cells were plated in SMEM containing 5% fetal calf serum with or without 10^−7M Dex, antiCD3 (clone 145-2C11) was used at 1 μg/ml to coat dishes (Iwata et al., 1991, Eur. J. Pharmacol. 21:643-648). […]

[5] = system: Nur-RE; test: NurRE-luc reporter (three copies of Nur-RE upstream of minimal POMC promoter) in AtT-20 cells; format: cell-based; settings: CRH 10^−7M
Procedure: as §1

[6] = biological target: T1, Nur77 (NGFI-B) (UniProt P12813 P12813:1-601); test: EMSA; binds as monomer; settings: tags: Promega TNT SP6/T7, pCMX-Nur77; label: 3'-end label (Klenow)
T1 sequence (P12813 whole entry, one chain of several): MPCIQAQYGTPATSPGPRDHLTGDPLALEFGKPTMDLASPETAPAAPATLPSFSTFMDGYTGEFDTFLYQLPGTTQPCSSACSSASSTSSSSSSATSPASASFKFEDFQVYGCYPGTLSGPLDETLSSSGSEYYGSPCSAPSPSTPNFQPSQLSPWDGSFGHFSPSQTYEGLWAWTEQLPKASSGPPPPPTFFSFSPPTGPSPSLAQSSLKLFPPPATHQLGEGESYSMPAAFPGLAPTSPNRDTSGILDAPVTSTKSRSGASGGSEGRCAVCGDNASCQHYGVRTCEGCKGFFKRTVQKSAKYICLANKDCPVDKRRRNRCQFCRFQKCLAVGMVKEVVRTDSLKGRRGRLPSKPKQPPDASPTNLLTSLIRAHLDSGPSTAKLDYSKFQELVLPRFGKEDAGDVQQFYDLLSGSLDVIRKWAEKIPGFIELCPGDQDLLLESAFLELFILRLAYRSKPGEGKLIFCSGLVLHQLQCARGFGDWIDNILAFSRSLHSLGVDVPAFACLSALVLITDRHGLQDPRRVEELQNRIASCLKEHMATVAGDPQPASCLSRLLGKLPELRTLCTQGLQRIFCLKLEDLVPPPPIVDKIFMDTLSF
From the text: For gel retardation experiments, Nur-RE or NBRE oligonucleotides were 3'-end-labeled using Klenow polymerase and purified on polyacrilamide gels.
(§2) The interaction of Nur77 with Nur-RE was investigated directly in binding studies using in vitro translated Nur77.

[7] = biological target: Glucocorticoid receptor (GR) (UniProt P06536 P06536:1-795); test: EMSA; settings: tags: Promega TNT; label: 3'-end label (Klenow)
Chain of Glucocorticoid receptor (GR) (P06536 whole entry, one chain of several): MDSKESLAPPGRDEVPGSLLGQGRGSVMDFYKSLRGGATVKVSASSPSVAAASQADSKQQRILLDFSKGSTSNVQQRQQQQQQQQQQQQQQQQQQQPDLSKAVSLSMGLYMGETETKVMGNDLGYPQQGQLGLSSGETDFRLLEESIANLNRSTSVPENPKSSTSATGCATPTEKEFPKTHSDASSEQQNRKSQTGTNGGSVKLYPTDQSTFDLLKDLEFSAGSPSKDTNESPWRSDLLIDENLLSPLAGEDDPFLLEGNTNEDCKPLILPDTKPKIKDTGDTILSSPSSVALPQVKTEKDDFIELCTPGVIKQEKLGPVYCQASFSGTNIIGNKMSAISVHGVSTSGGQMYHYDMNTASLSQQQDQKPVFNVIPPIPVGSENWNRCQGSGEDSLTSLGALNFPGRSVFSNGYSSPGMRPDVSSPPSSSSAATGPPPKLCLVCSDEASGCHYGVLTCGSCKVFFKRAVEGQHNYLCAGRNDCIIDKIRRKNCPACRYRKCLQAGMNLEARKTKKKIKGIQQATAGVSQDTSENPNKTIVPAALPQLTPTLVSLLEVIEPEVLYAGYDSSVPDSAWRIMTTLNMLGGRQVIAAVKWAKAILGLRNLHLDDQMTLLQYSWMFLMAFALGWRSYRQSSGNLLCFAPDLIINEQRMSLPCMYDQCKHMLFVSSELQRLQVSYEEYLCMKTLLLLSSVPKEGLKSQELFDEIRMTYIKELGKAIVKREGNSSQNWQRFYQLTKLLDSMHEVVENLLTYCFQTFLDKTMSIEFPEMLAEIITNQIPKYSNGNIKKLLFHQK

[8] = biological target: T1, Nur77 (NGFI-B); test: EMSA; binds as homodimer, apparently cooperative; DMS interference maps two inverted octamers 6 bp apart; settings: tags: Promega TNT SP6/T7, pCMX-Nur77; label: 3'-end label (Klenow)
From the text: End-labeled coding (C) and non-coding (NC) strands of the Nur-RE were used for DMS interference of Nur77 binding. […] E) Binding of Nur77 to the wild-type and mutant Nur-RE. […] Methods. For gel retardation experiments, Nur-RE or NBRE oligonucleotides were 3'-end-labeled using Klenow polymerase and purified on polyacrilamide gels.
as §2

C[C@@H]1C[C@H]2[C@@H]3CCC4=CC(=O)C=C[C@]4(C)[C@@]3(F)[C@@H](O)C[C@]2(C)[C@@]1(O)C(=O)CO [Dex, dexamethasone]
magnitude of the repression of POMC promoter/luciferase reporter [1]: 2- to 3 fold | reduction of the CRH induction of Nur77 mRNA ([2]; Dex 10^−7M with CRH 10^−7M): about 50% | effect on Nur77 activation at the NurRE in the absence of GR [3]: no effect | magnitude of Nur77/Dex antagonism on NBRE-luc reporter relative to NurRE-luc [4]: about 40 fold less

Corticotropin Releasing Hormone (SEEPPISLDLTFHLLREVLEMARAEQLAQQAHSNRKLMEII; ends and bridges not checked; UniProt P06850 154-194, looked up) [CRH, hypothalamic hormone, major stimulus of pituitary ACTH secretion and of POMC transcription]
response of Nur-RE reporter (oligomerized response element, construct 6) to CRH [5]: greatly enhanced response | induction of Nur77 mRNA/expression ([2]; CRH 10^−7M): rapidly Induced; also recorded: transient induction

B1: NBRE (dsDNA)
DNA 1: GATCCTCGTGCGAAAAGGTCAAGCGCTA
DNA 2: TAGCGCTTGACCTTTTCGCACGAGGATC
binding result [6]: binds

B2: NurRE (POMC) (dsDNA)
DNA 1: GATCCTAGTGATATTTACCTCCAAATGCCAGGA
DNA 2: TCCTGGCATTTGGAGGTAAATATCACTAGGATC
binding result [7]: no binding | binding result [8]: binds
